# Counter-ions that a name gives are not always drawn.
# Key:
# DSS-colitis = DSS-colitis (acute colitis) mouse model: weight loss, DAI, symptoms, crypt score; assay type: in vivo, C57BL/6 mice; settings: for mean time to development of loose stool / mean time to bleeding: Kaplan-Meier; for mean time to development of loose stool: non-treated 3 days; for mean time to bleeding: non-treated 5.1 days; for colon histology (cryptal structure): day 7, light microscopy; for crypt score: day 7, non-treatment group 4.8; for disease activity index (DAI): i.p. daily (CoPPIX 5 mg/kg; biliverdin 50 μmol/kg)
# Description: Animals. Pathogen-free male C57BL/6 mice, 4-6 weeks of age (Taconic; C57BL/6×129 svj strain) were used in this example. Mice were kept for one week at 4 mice/cage and fed normal laboratory chow and drinking water ad libitum prior to the experiments. All mice weighed between 22.5 g and 27.7 g at the beginning of the trial. The animal experimentation protocol was reviewed and approved by the Animal Care and Use Committees of the Beth Israel Deaconess Medical Center.
# Induction of Colitis. Colitis was induced by feeding mice 5% (wt/v) dextran sodium sulfate (DSS) (MW 40,000; ICN Biomedicals Inc., OH), dissolved in distilled water, for a period of 7 days. The resulting condition was termed “DSS-colitis.” Control animals were fed distilled water ad libitum. The mortality rate in the control group and the CO-treated group was 10% (2/20) and 14% (2/14), respectively. These animals were excluded from the statistical analysis. In the other groups, no mortality occurred during 7 days of 5% DSS treatment.
# Experimental Reagents and Treatment Protocol. Cobalt protoporphyrin (CoPPIX), zinc protoporphyrin (ZnPPIX, Porphyrin Products, Logan, Utah) and biliverdin dihydrochloride (ICN Biomedicals Inc., OH) were dissolved in a small amount 0.2 M NaOH, subsequently adjusted to a pH of 7.4 with 1 M HCl, and diluted in 0.9% NaCl. The stock solutions (CoPPIX and ZnPPIX=1 mg/ml, biliverdin=10 mM) were aliquoted and kept at −70° C. until used. Light exposure was limited as much as possible. CoPPIX (5 mg/kg), ZnPPIX (20 mg/kg) and biliverdin (50 μmol/kg) were administered to the mice intraperitoneally (i.p.) 24 hours before induction of DSS-colitis and daily thereafter. Desferoxamine (DFO) was prepared in imidazole buffer (50 mM imidazole, 220 mM NaCl, pH 7.4). DFO was injected subcutaneously (s.c.) twice daily (125 mg/kg) or infused i.p. (130 mg/kg/day; pumping rate 0.5 μl/hour for 8 days) by miniosmotic Alzet™ pumps (Alza Corporation, Palo Alto, Calif.) (Postma et al., Exp. Parasitol. 89(3):323-30 1998). The pumps were installed i.p. 24 hours before induction of colitis. When animals were sacrificed at day 7 of DSS treatment, the pumps were removed and evaluated to determine if DFO application had taken place.
# CO gas was administrated exogenously by putting animals in a CO exposure chamber (Otterbein et al., Nat. Med. 6(4):422-8, 2000). Briefly, CO at a concentration of 1% (10,000 parts per million (ppm)) in compressed air was mixed with balanced air (21% oxygen) in a stainless steel mixing cylinder before entering the exposure chamber. CO concentrations were controlled by varying the flow rates of CO in a mixing cylinder before delivery to the chamber. Because the flow rate is primarily determined by the O2 flow, only the CO flow was changed to deliver the final concentration to the exposure chamber. A CO analyzer (Interscan Corporation, Chatsworth, Calif.) was used to measure CO levels continuously in the chamber. Mice were placed in the chamber 24 hours before the induction of the colitis and were kept in the exposure chamber during the whole period of the experiment (total of 8 days). […] Animals were removed daily from the chamber to assess weight and stool.
# Evaluation of Symptoms of Colitis. All animals were evaluated clinically on a daily basis. The evaluation of each animal included a measurement of weight, hemoccult positivity and examination of stool for the presence of gross blood and stool consistency. The disease activity index (DAI) was calculated by scoring percent weight loss, intestinal bleeding (no blood; occult blood=hemoccult+; gross blood) and stool consistency (normal stool=well-formed pellets; loose stool=pasty and semiformed stools; diarrhea=liquid stool that stuck to the anus) (Table 1).
# The animals were sacrificed, and the whole colon from the colo-cecal junction to the anal verge was removed and gently cleaned of stool. […]
# intestinal graft = experiment: Graft permeability, everted gut sac method with FD4; assay type: in vivo, LEW rats; settings: BV treated grafts
# Protocol: Graft permeability. The preparation of everted gut sacs was performed in ice-cold modified Krebs-Henseleit bicarbonate buffer [KHBB (pH 7.4)] consisting of 10 mM HEPES, 137.0 mM NaCl, 5.36 mM KCl, 4.17 mM NaHCO3, 0.34 mM Na2HPO4, 0.44 mM KH2PO4, 0.41 mM MgSO47H2O, 0.49 mM MgCl26H20, 1.26 mM CaCl2, and 19.45 mM glucose. One end of the gut segment was ligated with 4-0 silk. The resulting gut sac was everted using a thin plastic rod. A groove was cut into the tip of a 5 ml plastic syringe and 1.5 mL of KHBB was drawn into the syringe. The open end of the everted gut sac was secured to the groove using 4-0 silk, and the intestine was gently distended by injecting the KHBB from the syringe. […] Following a 30 min incubation, the length of the sac was measured, and 1.0 mL of the fluid within the gut sac was collected. […] Subsequently, 300 ul of the supernatant was diluted with 3.0 mL of phosphate buffered saline, and the fluorescence of the solution was measured using a Perkin-Elmer LS-50 fluorescence spectrophotometer (Palo Alto, Calif.) at an excitation wave length of 492 nm (slit width=10.0 nm) and an emission wavelength of 515 nm (slit width=[…]).
# Graft permeability. […] Graft permeability was determined by the everted gut sac method using 4 Kd Fluorescein isothiocyanate dextran.
# recipient splenocytes = experiment: Mixed lymphocyte culture with splenocytes of treated cardiac allograft recipients; assay type: in vivo, mice
# Protocol: Mixed lymphocyte culture (MLC). Irradiated (25Gy, ^137Cs) DBA/2 splenocytes (5×10^5/well) were co-cultured with responders (5×10^5/well) in a 96 well round bottom plates for 3 days at 37° C., 95% air with 5% CO2. When using cells from cardiac recipients as responders, the co-culture period was 3 days without any further in vitro treatment. ^3H-thymidine (1 μCi/well) was added 16 hours before termination of cell culture, and ^3H-thymidine incorporation was measured.
# Induction of HO-1 expression or biliverdin administration suppresses the T cell mediated alloimmune response in vivo. […] Recipient splenocytes harvested 5 days after cardiac transplantation were used as responder cells in an in vitro culture with DBA/2 splenocytes as feeder cells. Proliferation was measured at 72 hours (FIG. 9).
SMILES,mean time to development of loose stool (DSS-colitis),mean time to bleeding (DSS-colitis),colon histology (cryptal structure) (DSS-colitis),crypt score (DSS-colitis),disease activity index (DAI) (DSS-colitis; day 7 of DSS),"mean total percent body weight loss (DSS-colitis; day 7 of DSS, i.p. daily from 24 hours before DSS (CoPPIX 5 mg/kg; biliverdin 50 μmol/kg))",inhibition of the increase of intestinal permeability (intestinal graft),"proliferation of recipient splenocytes (recipient splenocytes; biliverdin 50 μmol/kg, one dose per day)","proliferation of recipient splenocytes (recipient splenocytes; biliverdin 50 μmol/kg, three doses per day)",difference in DAI between CoPP-treated and untreated groups (DSS-colitis; day 2),difference in DAI between CoPP-treated and untreated groups (DSS-colitis; day 5 (maximum protection)),difference in DAI between CoPP-treated and untreated groups (DSS-colitis; toward the end of the 7 days),"proliferation of recipient splenocytes (recipient splenocytes; harvested 5 days after cardiac transplantation, 72 hours culture with DBA/2 splenocytes, compared to controls)"
"C=CC1=C(C)/C(=C/C2=NC(=C\c3[nH]c(/C=C4\NC(=O)C(C)=C4C=C)c(C)c3CCC(=O)O)/C(CCC(=O)O)=C2C)NC1=O [biliverdin, biliverdin dihydrochloride]",4.4 days,6.2 days,preserved cryptal structure,3,3.3,16.5%,~60%,significantly suppressed,significantly suppressed,–,–,–,–
"C=CC1=C(C)c2cc3[n-]c(cc4nc(cc5[n-]c(cc1n2)c(C)c5CCC(=O)[O-])C(CCC(=O)[O-])=C4C)c(C)c3C=C.[Co+2].[H+].[H+] [CoPP, Cobalt protoporphyrin]",4.6 days,6.9 days,remaining cryptal structures and intact epithelial surface,2.6,2.8,–,–,–,–,0.4,1.64,1.04,inhibited splenocyte proliferation in a significant manner
